The results in this text go back to US20120214802A1, “PYRROLIDINE COMPOUNDS WHICH INHIBIT BETA-SECRETASE ACTIVITY AND METHODS OF USE THEREOF” (priority 2009, published 2012).

Assay [1] deals with memapsin 2 (Homo sapiens, UniProt P56817). The experiment in a line: Inhibition of memapsin 2 beta-secretase activity (fluorogenic substrate FS-2). In kind it is biochemical. The following applies: pH 4, 37° C., read-out: M2 Ki. The protocol: Potency of compounds were determined by measurement of their inhibition of memapsin 2 activity toward a fluorescent substrate. Kinetic inhibition experiments were performed using the procedure as described in Ermolieff, et al. (Biochemistry 39:12450-12456 (2000), the teachings of which are incorporated hereby in their entirety). Briefly, assays were performed at pH 4, 37° C., by pre-incubation of memapsin 2 enzyme with compound for 20 minutes. Activity measurements were initiated by addition of a fluorogenic substrate FS-2 (Bachem Americas, Torrance, Calif.) MCA-SEVNLDAEFR-DNP (SEQ ID NO.: 2). The substrate was derived from 10 amino acids of the human amyloid precursor protein (APP), with the Swedish variant amino acids at the beta-secretase cleavage site. The terminal amino acid was modified from arginine to lysine to facilitate derivatization with a functional group for detection by autofluorescence. The amino acid sequence of the “core” peptide of the substrate is SEVNLDAEFK (SEQ ID NO.: 3). The amino terminus was derivatized with (7-methoxycoumarin-4-yl)acetyl (MCA), and the epsilon amine of the lysine side chain of the terminal residue (K in sequence SEVNLDAEFK (SEQ ID NO.: 3)) was derivatized with 2,4-dinitorphenyl (DNP).
memapsin 2 (Homo sapiens, UniProt P56817), sequence (P56817 46-501): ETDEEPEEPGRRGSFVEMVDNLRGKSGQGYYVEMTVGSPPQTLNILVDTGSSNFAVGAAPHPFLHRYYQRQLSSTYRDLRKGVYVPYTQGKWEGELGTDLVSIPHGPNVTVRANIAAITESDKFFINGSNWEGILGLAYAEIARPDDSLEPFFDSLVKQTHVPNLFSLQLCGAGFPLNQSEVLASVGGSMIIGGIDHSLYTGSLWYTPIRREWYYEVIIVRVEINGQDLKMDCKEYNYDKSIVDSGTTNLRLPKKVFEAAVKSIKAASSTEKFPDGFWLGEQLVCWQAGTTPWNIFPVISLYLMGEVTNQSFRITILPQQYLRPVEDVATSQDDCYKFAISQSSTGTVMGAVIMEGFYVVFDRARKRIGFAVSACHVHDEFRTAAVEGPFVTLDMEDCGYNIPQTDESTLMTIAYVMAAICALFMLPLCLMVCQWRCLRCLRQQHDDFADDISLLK

In assay [2] the target is T1, memapsin 2 (Cricetulus griseus, UniProt G3IAK4).
T1 construct: endogenous in cells; host or cells: Chinese hamster ovary cells over-expressing human APP695 (London + Swedish)
T1 sequence (G3IAK4 22-501): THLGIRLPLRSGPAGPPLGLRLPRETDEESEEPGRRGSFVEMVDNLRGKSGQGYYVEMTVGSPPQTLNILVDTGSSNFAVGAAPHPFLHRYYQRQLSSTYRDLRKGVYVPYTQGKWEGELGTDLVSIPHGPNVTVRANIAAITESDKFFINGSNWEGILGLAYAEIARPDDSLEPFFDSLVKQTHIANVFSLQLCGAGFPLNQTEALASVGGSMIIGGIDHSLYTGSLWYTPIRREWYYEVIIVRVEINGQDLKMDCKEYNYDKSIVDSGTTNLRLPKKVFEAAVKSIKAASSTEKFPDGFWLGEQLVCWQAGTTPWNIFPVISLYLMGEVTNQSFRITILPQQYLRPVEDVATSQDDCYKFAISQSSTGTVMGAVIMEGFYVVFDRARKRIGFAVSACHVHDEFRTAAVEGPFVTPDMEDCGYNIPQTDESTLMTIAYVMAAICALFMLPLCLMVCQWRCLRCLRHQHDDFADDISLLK
Nature of the assay: Cellular Aβ IC50 determination (Aβ40 sandwich ELISA). In kind it is cell-based, Chinese hamster. To be noted: CHO cells over-expressing human APP695 with London and Swedish mutations, 24 h, read-out: M2 IC50. The protocol: The potency of compounds against memapsin 2 activity was determined in a cellular assay of Aβ production. […] Chinese hamster ovary cells that over-express human APP695 with the London and Swedish mutations were seeded in multi-well plates at 10% confluency. Compounds are dissolved in DMSO to concentrations near 1 mM, and diluted into culture media to a final concentration near 4 μM (final 0.4% DMSO). Compounds were diluted serially and applied to cells in multi-well plates 48 h after seeding. Incubation was continued in 5% CO2 at 37° C. for 24 h. Aliquots were removed and assayed for […] using a sandwich ELISA (BioSource International). Amount of Aβ40 over the range of concentration of compounds, relative to control incubations, were fit to a 4-parameter IC50 model.
A general note: In an ELISA, binding on a coated surface is turned into a signal by an enzyme label.

Assay [3] deals with T2, CYP3A4 (Homo sapiens, UniProt P08684).
T2 construct: host or cells: human liver microsomes
T2 sequence (P08684 whole entry): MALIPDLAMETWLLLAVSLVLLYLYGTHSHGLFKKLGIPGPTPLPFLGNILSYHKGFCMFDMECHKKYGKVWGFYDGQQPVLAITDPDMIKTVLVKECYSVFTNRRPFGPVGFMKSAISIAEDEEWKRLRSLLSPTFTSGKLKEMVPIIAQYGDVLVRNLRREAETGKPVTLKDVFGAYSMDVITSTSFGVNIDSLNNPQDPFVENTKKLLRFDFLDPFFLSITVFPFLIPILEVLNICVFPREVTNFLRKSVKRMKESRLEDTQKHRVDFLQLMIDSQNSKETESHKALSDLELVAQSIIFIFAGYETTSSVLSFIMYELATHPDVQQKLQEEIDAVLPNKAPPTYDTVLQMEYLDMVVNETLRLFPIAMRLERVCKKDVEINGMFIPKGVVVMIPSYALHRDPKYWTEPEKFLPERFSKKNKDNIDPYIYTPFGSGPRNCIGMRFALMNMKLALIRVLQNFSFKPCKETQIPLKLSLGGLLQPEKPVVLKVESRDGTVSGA
Nature of the assay: CYP3A4 inhibition (midazolam metabolism in human liver microsomes). The class given is in vitro ADME. To be noted: substrate midazolam, read-out: CYP 3A4Ki. The procedure:
To evaluate the drug-drug interaction potential for compounds, the potency to inhibit the major metabolic cytochrome CYP450 isoform 3A4 was assessed. The inhibition constant Ki was determined for inhibition of the metabolism of midazolam, a CYP3A4 substrate.
CYP3A4 Ki assays were performed following a recently published protocol with slight modifications (Di, L., Kerns, E. H., Li, S. Q., and Carter, G. T. (2007) Comparison of cytochrome P450 inhibition assays for drug discovery using human liver microsomes with LC-MS, rhCYP450 isozymes with fluorescence, and double cocktail with LC-MS. International Journal of Pharmaceutics 335: 1-11). The P450 inhibition assay was performed in 96-well plates at 37.2° C. in a shaking incubator. The compounds were diluted from 5 mM stocks in 100% DMSO and incubated at seven final concentrations from 0.078 to 10 μM (0.1% DMSO in each final incubation), with human liver microsomes (HLM) at a final protein concentration of 0.1 mg/mL protein and a substrate concentration ranging from 1.25 to 10 μM.
The assay was standardized for both phosphate buffer (100 mM, pH 7.4) and the NADPH regenerating system (MgCl2, 3.3 mM; G6P, 3.3 mM; G6PD, 1 U/ml; NADP+, 1.3 mM). Eight replicate control samples (0.1% DMSO, no compound) were prepared. Assays (200 μL) were set up by mixing HLM+substrate stock, 10 μL of test article in 2% DMSO, and the substrate before initiating the reaction with the addition of the regenerating system mixture. Reactions were quenched following incubation for 20, 30 and 40 minutes as described following.
After incubation for the specified time in a humidified shaking incubator, 20 μL of the reaction mixture was removed and the reactions were terminated by adding 200 μL of cold acetonitrile. Samples were centrifuged at 1000×g for 15 minutes in Solvinert filter plate. The receptor plate was dried via speed vacuum at 40° C. The sample was reconstituted with a reconstitution buffer composed of 10% acetonitrile, 10% DMSO, 80% H2O with an internal standard added at a concentration of 100 ng/ml. MS-Analysis was completed using LC-MS/MS. Formation of 1′-hydroxymidazolam was measured by monitoring a specific SRM (342>203) transition for the CYP3A4 metabolite.
Data were expressed as the relative quantity of midazolam metabolite relative to control incubations. Initial velocities were obtained by multiplying the relative quantity by the initial substrate concentration and dividing by the incubation duration. Data were transformed to inverse of inivital velocity and expressed vs. inhibitor concentration [I] for determination of Ki by the Dixon method (Dixon, M. (1953) Biochemical Journal 55: 170-171) using where intercept [I]=−Ki was determined at multiple substrate concentrations.
A general note: Microsomes from liver hold many membrane-bound enzymes, among them those of drug oxidation.

One may read the IC50 as the concentration at which inhibition is half-maximal.

In the case of `Cc1csc(CN(C(=O)c2cccc(C(=O)N[C@@H](Cc3ccccc3)[C@H](O)CNCc3cccc(C(F)(F)F)c3)c2)C2CC2)n1` [2-9, N1-cyclopropyl-N3-((2S,3R)-3-hydroxy-1-phenyl-4-(3-(trifluoromethyl)benzylamino)butan-2-yl)-N1-((4-methylthiazol-2-yl)methyl)isophthalamide, reference compound], the Ki in assay [1] is less than 250 nM; in assay [3], less than 1000 nM. In addition, in assay [2], the IC50 is less than 500 nM.
The like results for `Cc1csc([C@H]2CCCN2C(=O)c2cc(C(=O)N[C@@H](Cc3ccccc3)[C@H](O)[C@H]3C[C@@H](OCc4ccccc4)CN3)cc(-c3ncco3)c2)n1` [1-52, N-((1R,2S)-1-((2R,4R)-4-(benzyloxy)pyrrolidin-2-yl)-1-hydroxy-3-phenylpropan-2-yl)-3-((R)-2-(4-methylthiazol-2-yl)pyrrolidine-1-carbonyl)-5-(oxazol-2-yl)benzamide] were, in that order, less than 250 nM, 1000 to 5000 nM and less than 500 nM.
As for `Cc1cc(C(=O)N[C@@H](Cc2ccccc2)[C@H](O)CNCc2cncc(C(C)(C)C)c2)cc(C(=O)N2CCC[C@@H]2c2nc(C)co2)c1` [2-11, N-((2S,3R)-4-((5-tert-butylpyridin-3-yl)methylamino)-3-hydroxy-1-phenylbutan-2-yl)-3-methyl-5-((R)-2-(4-methyloxazol-2-yl)pyrrolidine-1-carbonyl)benzamide, reference compound], the results for the Ki in assay [1] and in assay [3] were less than 250 nM and less than 1000 nM, respectively. In assay [2], the IC50 is less than 500 nM.
Consider `Cc1csc([C@H]2CCCN2C(=O)c2cc(C(=O)N[C@@H](Cc3ccccc3)[C@H](O)[C@H]3CCCN3)cc(-c3cnccn3)c2)n1` [1-20, N-((1R,2S)-1-hydroxy-3-phenyl-1-((R)-pyrrolidin-2-yl)propan-2-yl)-3-((R)-2-(4-methylthiazol-2-yl)pyrrolidine-1-carbonyl)-5-(pyrazin-2-yl)benzamide], for which the figures for the Ki in assay [1] and in assay [3] were less than 250 nM and greater than 10000 nM, respectively. For the same compound, in assay [2], the IC50 is less than 500 nM.
In the case of `Cc1csc([C@H]2CCCN2C(=O)c2cc(C(=O)N[C@@H](Cc3ccccc3)[C@H](O)[C@H]3CCCN3)cc(N3CCOCC3)c2)n1` [1-33, N-((1R,2S)-1-hydroxy-3-phenyl-1-((R)-pyrrolidin-2-yl)propan-2-yl)-3-((R)-2-(4-methylthiazol-2-yl)pyrrolidine-1-carbonyl)-5-morpholinobenzamide], the Ki in assay [1] is greater than 750 nM; in assay [3], 5000 to 10000 nM. For the same compound, the IC50 in assay [2] was greater than 1000 nM.
In the case of `Cc1cc(C(=O)N[C@@H](Cc2ccccc2)[C@H](O)CNCc2cncc(C(C)C)c2)cc(C(=O)N2CCC[C@@H]2c2nc(C)cs2)c1` [2-8, N-((2S,3R)-3-hydroxy-4-((5-isopropylpyridin-3-yl)methylamino)-1-phenylbutan-2-yl)-3-methyl-5-((R)-2-(4-methylthiazol-2-yl)pyrrolidine-1-carbonyl)benzamide, reference compound], the Ki in assay [1] is less than 250 nM; in assay [3], less than 1000 nM. Further, in assay [2], the IC50 was less than 500 nM.
The like results for `Cc1csc([C@H]2CCCN2C(=O)c2cccc(C(=O)N[C@@H](Cc3ccccc3)[C@H](O)CNCc3cccc(C(C)(C)C)c3)c2)n1` [2-10, N-((2S,3R)-4-(3-tert-butylbenzylamino)-3-hydroxy-1-phenylbutan-2-yl)-3-((R)-2-(4-methylthiazol-2-yl)pyrrolidine-1-carbonyl)benzamide, reference compound] were, in that order, less than 250 nM, less than 1000 nM and less than 500 nM.
In the case of `Cc1coc([C@H]2CCCN2C(=O)c2cc(C(=O)N[C@@H](Cc3ccccc3)[C@H](O)[C@H]3CCCN3)cc(N(C)S(C)(=O)=O)c2)n1` [1-28, N-((1R,2S)-1-hydroxy-3-phenyl-1-((R)-pyrrolidin-2-yl)propan-2-yl)-3-(N-methylmethylsulfonamido)-5-((R)-2-(4-methyloxazol-2-yl)pyrrolidine-1-carbonyl)benzamide], the Ki in assay [1] is less than 250 nM; in assay [3], greater than 10000 nM.
`Cc1csc([C@H]2CCCN2C(=O)c2cc(CF)cc(C(=O)N[C@@H](Cc3ccccc3)[C@H](O)[C@H]3C[C@@H](OCc4ccccc4)CN3)c2)n1` [1-36, N-((1R,2S)-1-((2R,4R)-4-(benzyloxy)pyrrolidin-2-yl)-1-hydroxy-3-phenylpropan-2-yl)-3-(fluoromethyl)-5-((R)-2-(4-methylthiazol-2-yl)pyrrolidine-1-carbonyl)benzamide]: the Ki is less than 250 nM in assay [1] and greater than 10000 nM in assay [3]. For the same compound, in assay [2], the IC50 was less than 500 nM.
On to `Cc1csc([C@H]2CCCN2C(=O)c2cccc(C(=O)N[C@@H](Cc3ccccc3)[C@H](O)[C@H]3C[C@H](F)CN3)c2)n1` [1-47, N-((1R,2S)-1-((2R,4S)-4-fluoropyrrolidin-2-yl)-1-hydroxy-3-phenylpropan-2-yl)-3-((R)-2-(4-methylthiazol-2-yl)pyrrolidine-1-carbonyl)benzamide], for which the Ki in assay [1] lay within 250 to 750 nM. Moreover, in assay [2], the IC50 is greater than 1000 nM.
As for `Cc1coc([C@H]2CCCN2C(=O)c2cc(C(=O)N[C@@H](Cc3ccccc3)[C@H](O)[C@H]3CCCN3)cc(-c3cnccn3)c2)n1` [1-21, N-((1R,2S)-1-hydroxy-3-phenyl-1-((R)-pyrrolidin-2-yl)propan-2-yl)-3-((R)-2-(4-methyloxazol-2-yl)pyrrolidine-1-carbonyl)-5-(pyrazin-2-yl)benzamide], the Ki in assay [1] is less than 250 nM. The IC50 in assay [2] was less than 500 nM.
The like results for `Cc1csc([C@H]2CCCN2C(=O)c2cc(CF)cc(C(=O)N[C@H](Cc3ccccc3)[C@H](O)[C@H]3C[C@@H](OCc4ccccc4)CN3)c2)n1` [1-45, N-((1R,2R)-1-((2R,4R)-4-(benzyloxy)pyrrolidin-2-yl)-1-hydroxy-3-phenylpropan-2-yl)-3-(fluoromethyl)-5-((R)-2-(4-methylthiazol-2-yl)pyrrolidine-1-carbonyl)benzamide] were, in that order, greater than 750 nM and greater than 1000 nM.
On to `Cc1coc([C@H]2CCCN2C(=O)c2cc(C(=O)N[C@@H](Cc3ccccc3)[C@H](O)[C@H]3CCCN3)cc(-n3cccc3)c2)n1` [1-26, N-((1R,2S)-1-hydroxy-3-phenyl-1-((R)-pyrrolidin-2-yl)propan-2-yl)-3-((R)-2-(4-methyloxazol-2-yl)pyrrolidine-1-carbonyl)-5-(1H-pyrrol-1-yl)benzamide], for which the Ki is less than 250 nM in assay [1] and 5000 to 10000 nM in assay [3].
For `Cc1csc(CN(C)C(=O)c2cc(C(=O)N[C@@H](Cc3ccccc3)[C@H](O)[C@H]3CCCN3)cc(N(C)S(C)(=O)=O)c2)n1` [1-27, N1-((1R,2S)-1-hydroxy-3-phenyl-1-((R)-pyrrolidin-2-yl)propan-2-yl)-N3-methyl-5-(N-methylmethylsulfonamido)-N3-((4-methylthiazol-2-yl)methyl)isophthalamide], the Ki in assay [1] lay in the range of 250 to 750 nM. Also, the IC50 in assay [2] was less than 500 nM.
